The test system of assay [1] is mouse colon cancer Colon 26 cells. Briefly: Test of anticachexia effects in mice bearing mouse colon cancer Colon 26 cells. It is filed as in vivo. Particulars: for Body Weight Recovery Rate (%): day 19, (Δgt−Δgc1)/(Δgc2−Δgc1)×100; for Weight Gain (Δg): day 19 after tumor cell transplantation, female CDF1 mice 8 weeks old; for Average Weight Gain (Δg): 22 days after tumor transplantation, female CDF1 mice 16 weeks old, control −4.2; for Inhibition of mouse tumor cachexia and weight loss (in words): Examples 1-3, 1-10 mg/kg oral.
Description: The test animals were CDF1 mice (females, 8 weeks old). They were employed in groups of 10 for each test. 1×10^6 mouse colon cancer Colon 26 cells were transplanted subcutaneously into each animal.
The test compounds were Compounds No. 1-94 and 2-78 as shown above in Tables 1 and 2, respectively, and having the following formulae: […]
Each test compound was suspended in sterilized distilled water containing 0.5% w/v carboxymethyl cellulose (CMC) and administered orally once per day starting on the day of the tumor cell transplantation.
Each test animal was weighed immediately after tumor cell transplantation, and the weight (A g) was recorded. Each animal was then weighed on day 19 after tumor cell transplantation, and the weight (B g) was recorded. The weight gain on day 19 after tumor cell transplantation was calculated as B−A=Δgt for the test animals. The experiment was repeated with two control groups: the first control group (control group 1) was transplanted with the tumor cells but were not treated with any test compound, and the weight gain is reported as Δgc1; the second control group (control group 2) were not transplanted with the tumor cells and were not treated with any test compound, and the weight gain is reported as Δgc2. The body weight recovery rate was determined according to the following formula based on the weight gain on day 19 after tumor cell transplantation, and this value was used as an indicator of the anticachexia effect. Body weight recovery rate (%)=(Δgt−Δgc1)/(Δgc2−Δgc1)×100
(§1) The procedure described in Example 1 was repeated, but using the compound of formula (III) as the test compound, and comparing the weight gain (Δgt) of the test group of animals to which the compound of formula (III) had been administered with a control group (Δgc) into which the tumor cells had been transplanted but to which no anti-tumor compound had been administered. The test animals were female CDF1 mice, 16 weeks old. Also, the weight gain was measured 22 days after tumor transplantation. The average body weight of each group of animals immediately after tumor transplantation was 25 to 26 g.
as §1, with “Example 2” for “Example 1”, “formula (IV)” for “formula (III)”, “mice, 7” for “mice, 16”, “measured 15” for “measured 22”, “was 20” for “was 25”, “to 21” for “to 26”
Test compounds [the compounds of formula (V), (VI), (VII), (VIII), (IX), (X), (XI), (XII), (XIII) and (XIV)] are administered in the same manner as described in Example 2.

The test system is the same in assay [2]. Briefly: Life-prolonging activity test in mice bearing Colon 26 cells. The class given is in vivo. Particulars: for Life-prolonging Index (%): (St/Sc−1)×100; for Life-prolongation (in words): Example 7, animals of Examples 3 and 4, present tense, no data. The method, then:
Observation of the mice used in Example 1 above was continued. The life-prolonging index was determined, based on the number of days each mouse survived, and this value was then used as an indicator of the life-prolonging effects of the test compounds.
It should be noted that, in the case of the group of mice treated with a test compound, oral administration of the respective compound once daily was continued on day 20 after tumor cell transplantation and beyond as well. Life-prolonging index (%)=(St/Sc−1)×100 • St: Median value of survival time (days) of the group of mice treated with a test compound • Sc: Median value of survival time (days) of the control group which were […].
The experiment reported in Example 5 was repeated with the animals used in Example 2. In the case of the group of mice treated with a test compound, oral administration of the respective compound once daily was continued on day 23 after tumor cell transplantation and beyond as well.
The experiment reported in Example 5 is repeated with the animals used in Examples 3 and 4.

The test system of assay [3] is mouse malignant melanoma B16-BL6 cells. Nature of the assay: Inhibitory effect on lung metastasis of mouse malignant melanoma B16-BL6 cells. The class given is in vivo. Particulars: for Inhibition of lung metastasis (in words): 1 mg/kg oral, lung metastasis accelerating conditions (LPS); for LMI (%) lung metastasis inhibitory rate: LPS 3 μg i.v. before transplantation, 1 mg/kg per day oral for five days, colonies counted on 10th day, C57BL/6 mice. As for the experimental part:
Groups of mice, each group containing ten C57BL/6 mice (female, age: 8 weeks) were transplanted intravenously into the tail vein with 3×10^4 of mouse malignant melanoma B16-BL6 cells.
The mice were, when necessary, administered intravenously into the tail vein with a bacterial lipopolysaccharide (LPS) in an amount of 3 μg each within one hour before transplantation of the melanoma cells so as to accelerate lung metastasis of the melanoma [M. J. Anasagasti et al., J. Natl. Cancer Research, 89, 645-651 (1997).]
As test compounds, Compound No. 2-118, a compound of formula (IV), a compound of formula (V) and indomethacin were employed, and each was suspended in sterilized distilled water containing 0.5% w/v of carboxymethyl cellulose (CMC), and the suspensions were orally administered at a dose of 1 mg/kg per day for five days starting from the day of the melanoma cell transplantation.
Inhibitory activities on lung metastasis of the melanoma cells were evaluated in terms of the lung metastasis inhibitory rate (LMI %) by counting the number of metastatic colonies in the lung on the 10th day after intravenous transplantation of the mouse malignant melanoma B16-BL6 cells at the tail. LMI(%)=(1−Nt/Nc)×100 • Nt: Numbers of lung metastatic colonies on the 10th day in groups administered with the test compounds; and • Nc: Numbers of lung metastatic colonies on the 10th day in control groups which were not administered with the test compounds.

For assay [4], the system named is mouse colon cancer Colon 26 cells. Nature of the assay: Test of anticachexia effects in mice bearing mouse colon cancer Colon 26 cells. Particulars: 15 days after tumor transplantation, female CDF1 mice 7 weeks old, control −3.4. The class given is in vivo.
For assay [5], the system named is experimental colonic polyposis. Particulars: literature (Oshima 1996; Reddy 1996); cited from earlier work.
For assay [6], the system named is human colon cancer cell lines. Particulars: literature (Sheng 1997); COX-2 expressing line HCA-7; cited from earlier work.
[7] abbreviates: 1 mg/kg oral once daily, mice of Example 1.
Setting [8] is: 1 mg/kg oral once daily, mice of Example 1, untreated 29.0.
Setting [9] is: 3 mg/kg oral once daily, mice of Example 1.
The mark [10] stands for this setting: 3 mg/kg oral once daily, mice of Example 1, untreated 29.0.
The mark [11] stands for this setting: 10 mg/kg oral once daily, mice of Example 1.
The mark [12] stands for this setting: 10 mg/kg oral once daily, mice of Example 1, untreated 29.0.

In the case of `CSc1ccc(-n2cc(C)cc2-c2ccc(S(N)(=O)=O)cc2)cc1` [Compound 1-94, 4-methyl-1-(4-methylthiophenyl)-2-(4-sulfamoylphenyl)pyrrole], the figures for the “Body Weight Recovery Rate (%)” value in assay [1] (1 mg/kg oral once per day), in assay [1] (3 mg/kg oral once per day) and in assay [1] (10 mg/kg oral once per day) were 78%, 89% and 98%, respectively. Also, the figures for the “Weight Gain (Δg)” value in assay [1] (1 mg/kg oral once per day), in assay [1] (3 mg/kg oral once per day) and in assay [1] (10 mg/kg oral once per day) were 2.2 g, 2.7 g and 3.1 g, respectively. The “Life-prolonging Index (%)” value is 67% in assay [2] (setting [7]), 21% in assay [2] (setting [9]) and 55% in assay [2] (setting [11]). The figures for the “Survival Period (median: days)” value in assay [2] (setting [8]), in assay [2] (setting [10]) and in assay [2] (setting [12]) were 48.5 days, 35.0 days and 45.0 days, respectively.
For the compound `CCOc1ccc(-c2cc(C)cn2-c2ccc(S(N)(=O)=O)cc2)cc1` [Compound 2-78], the “Body Weight Recovery Rate (%)” value is reported as 85% in assay [1] (1 mg/kg oral once per day), 85% in assay [1] (3 mg/kg oral once per day) and 88% in assay [1] (10 mg/kg oral once per day). For the same compound, the “Weight Gain (Δg)” value is recorded as 2.5 g in assay [1] (1 mg/kg oral once per day), 2.5 g in assay [1] (3 mg/kg oral once per day) and 2.6 g in assay [1] (10 mg/kg oral once per day). Also, the “Life-prolonging Index (%)” value in assay [2] (setting [7]) stood at 55%; in assay [2] (setting [9]), 74%; in assay [2] (setting [11]), 67%. Further, the entries for the “Survival Period (median: days)” value in assay [2] (setting [8]), in assay [2] (setting [10]) and in assay [2] (setting [12]) were 45.0 days, 50.5 days and 48.5 days, respectively.
On to `CS(=O)(=O)c1ccc(C2=C(c3ccc(F)c(F)c3)C(=O)OC2)cc1` [Compound (III), 3-(3,4-difluorophenyl)-4-(4-methanesulfonylphenyl)-5H-furan-2-one], for which the “Average Weight Gain (Δg)” value in assay [1] (1 mg/kg oral once per day) is 0.0 g; in assay [1] (3 mg/kg oral once per day), 0.3 g; in assay [1] (10 mg/kg oral once per day), 0.9 g. In addition, the “Inhibition of mouse tumor cachexia and weight loss (in words)” value in assay [1] was “inhibited mouse tumor cachexia and reduced weight loss”. In addition, the “Survival Period (median: days)” value in assay [2] (1 mg/kg oral once daily, mice of Example 2 (16 weeks old), untreated 23.0) was 40.5 days; in assay [2] (3 mg/kg oral once daily, mice of Example 2 (16 weeks old), untreated 23.0), 37.5 days; in assay [2] (10 mg/kg oral once daily, mice of Example 2 (16 weeks old), untreated 23.0) it was 43.5 days. For the same compound, the “Life-prolonging Index (%)” value in assay [2] (1 mg/kg oral once daily, mice of Example 2) is listed as 76%; in assay [2] (3 mg/kg oral once daily, mice of Example 2), 63%; in assay [2] (10 mg/kg oral once daily, mice of Example 2) it was 91%.
Take `Cc1ccc(-c2cc(C(F)(F)F)nn2-c2ccc(S(N)(=O)=O)cc2)cc1` [Compound (IV), 4-(5-p-tolyl-3-trifluoromethyl-1H-pyrazol-1-yl)benzenesulfonamide]: the “Inhibition of mouse tumor cachexia and weight loss (in words)” value in assay [1] was “inhibited mouse tumor cachexia and reduced weight loss”. Besides, the “Life-prolongation (in words)” value in assay [2] is reported as “exhibit pronounced life-prolongation”. Also, in assay [3], the “Inhibition of lung metastasis (in words)” value was “had no such inhibitory activity”. For the same compound, the “LMI (%) lung metastasis inhibitory rate” value in assay [3] is 9%. Moreover, the “Average Weight Gain (Δg)” value in assay [4] (1 mg/kg oral once per day) is -1.2 g; in assay [4] (3 mg/kg oral once per day), -1.3 g; in assay [4] (10 mg/kg oral once per day) it was -0.6 g.
Turning to `CS(=O)(=O)Nc1cc2c(cc1Sc1ccc(F)cc1F)C(=O)CC2` [Compound (V), N-[6-(2,4-difluorophenylthio)-1-oxoindan-5-yl]methanesulfonamide], the “Inhibition of mouse tumor cachexia and recovery of body weight loss (in words)” value in assay [1] (Example 4, written in present tense, no data) was “inhibit mouse tumor cachexia and recover loss of average of body weight”. In assay [2], the “Life-prolongation (in words)” value is reported as “exhibit pronounced life-prolongation”. Besides, in assay [3], the “Inhibition of lung metastasis (in words)” value is given as “had no such inhibitory activity” and the “LMI (%) lung metastasis inhibitory rate” value stood at 1%.
Take `COc1ccc2c(c1)c(CC(=O)O)c(C)n2C(=O)c1ccc(Cl)cc1` [Indomethacin, reference compound]: in assay [3], the “Inhibition of lung metastasis (in words)” value is “had no such inhibitory activity” and the “LMI (%) lung metastasis inhibitory rate” value is reported as −1%.
As to `CS(=O)(=O)c1ccc(C2=C(c3ccc(F)c(F)c3)C(=O)OC2)cc1` [MF-tricyclic], in assay [5], the “Inhibition of occurrence of experimental colonic polyposis (in words)” value is “inhibit the occurrence of experimental colonic polyposis”.
For `CS(=O)(=O)c1ccc(-n2nc(C(F)(F)F)cc2-c2ccc(F)cc2)cc1` [SC-58125], in assay [6], the “Growth inhibitory effects against human colon cancer cell lines (in words)” value is recorded as “exhibits growth inhibitory effects against certain types of human colon cancer cell lines”.

(Values after patent US7745481B2, “Methods and compositions for the treatment and prevention of tumors, tumor-related disorders and cachexia” (Daiichi Sankyo Company, Limited, priority 1997, dated 2010).)
